This is an account of results in patent US5527907A, “Macrolide immunomodulators” (Abbott Laboratories, priority 1994, dated 1996).

Structures are written as SMILES. Where two headings read alike, the source gives them in different places.

Assay [1] relates to human mixed lymphocyte reaction. The experiment in a line: human mixed lymphocyte reaction (MLR) assay. Type of assay: cell-based. How it is done:
The immunosuppressant activity of the compounds of the present invention was determined using the human mixed lymphocyte reaction (MLR) assay described by Kino, T. et al. in Transplantation Proceedings, XIX(5):36-39,Suppl. 6 (1987).

The subject of a further assay is FKBP-12. The following applies: cited from earlier work.
The conditions of assay [2]: alone or in combination with picibanil; cited from earlier work.
Another assay relates to adjuvant arthritis. Particulars: model for rheumatoid arthritis; cited from earlier work.
The subject of assay [3] is experimental allergic encephalomyelitis. Particulars: model for multiple sclerosis; cited from earlier work.
The test system of the next assay is Candida albicans. Particulars: particularly against Candida albicans, both in vitro and in vivo; cited from earlier work.
The subject of another assay is T-cell activation. Particulars: cited from earlier work.
Assay [4] deals with formation of IgE-like antibodies. Particulars: cited from earlier work.
In assay [5] the test system is organ grafts in histoincompatible rodents. Particulars: cited from earlier work.
Where [6] appears, read: Mixed Leukocyte Response (MLR), Table 1, read-out: IC50.

On to `CO[C@H]1C[C@@H]2CC[C@@H](C)[C@@](O)(O2)C(=O)C(=O)N2CCCC[C@H]2C(=O)O[C@H]([C@H](C)C[C@@H]2CC[C@@H](OC(=O)N3CCOCC3)[C@H](OC)C2)CC(=O)[C@H](C)/C=C(\C)[C@@H](O)[C@@H](OC)C(=O)[C@H](C)C[C@H](C)/C=C/C=C/C=C/1C` [Example 3], for which the IC50 in assay [1] (setting [6]) stood at 0.13 nM.
For the molecule `CO[C@H]1C[C@@H]2CC[C@@H](C)[C@@](O)(O2)C(=O)C(=O)N2CCCC[C@H]2C(=O)O[C@H]([C@H](C)C[C@@H]2CC[C@H](O)[C@H](OC)C2)CC(=O)[C@H](C)/C=C(\C)[C@@H](O)[C@@H](OC)C(=O)[C@H](C)C[C@H](C)/C=C/C=C/C=C/1C` [Example 10, 42-epi-rapamycin], in assay [1], the IC50 was 0.03 nM.
Take `CO[C@H]1C[C@@H]2CC[C@@H](C)[C@@](O)(O2)C(=O)C(=O)N2CCCC[C@H]2C(=O)O[C@H]([C@H](C)C[C@@H]2CC[C@@H](OC(=O)N(C)OC)[C@H](OC)C2)CC(=O)[C@H](C)/C=C(\C)[C@@H](O)[C@@H](OC)C(=O)[C@H](C)C[C@H](C)/C=C/C=C/C=C/1C` [Example 17]: the IC50 in [1] (setting [6]) came out at 0.15 nM.
In the case of `CO[C@H]1C[C@@H]2CC[C@@H](C)[C@@](O)(O2)C(=O)C(=O)N2CCCC[C@H]2C(=O)O[C@H]([C@H](C)C[C@@H]2CC[C@H](Sc3ncc[nH]3)[C@H](OC)C2)CC(=O)[C@H](C)/C=C(\C)[C@@H](O)[C@@H](OC)C(=O)[C@H](C)C[C@H](C)/C=C/C=C/C=C/1C` [Example 38], the IC50 in assay [1] (setting [6]) came to 0.03 nM.
As to `CO[C@H]1C[C@@H]2CC[C@@H](C)[C@@](O)(O2)C(=O)C(=O)N2CCCC[C@H]2C(=O)O[C@H]([C@H](C)C[C@@H]2CC[C@H](Sc3nccn3C)[C@H](OC)C2)CC(=O)[C@H](C)/C=C(\C)[C@@H](O)[C@@H](OC)C(=O)[C@H](C)C[C@H](C)/C=C/C=C/C=C/1C` [Example 39], the IC50 in [1] (setting [6]) was determined as 0.14 nM.
On the same count and under the same terms, the value for `CO[C@H]1C[C@@H]2CC[C@@H](C)[C@@](O)(O2)C(=O)C(=O)N2CCCC[C@H]2C(=O)O[C@H]([C@H](C)C[C@@H]2CC[C@H](N=[N+]=[N-])[C@H](OC)C2)CC(=O)[C@H](C)/C=C(\C)[C@@H](O)[C@@H](OC)C(=O)[C@H](C)C[C@H](C)/C=C/C=C/C=C/1C` [Example 50] was 0.96 nM; that for `CO[C@H]1C[C@@H]2CC[C@@H](C)[C@@](O)(O2)C(=O)C(=O)N2CCCC[C@H]2C(=O)O[C@H]([C@H](C)C[C@@H]2CC[C@H](n3ccc(=O)cc3)[C@H](OC)C2)CC(=O)[C@H](C)/C=C(\C)[C@@H](O)[C@@H](OC)C(=O)[C@H](C)C[C@H](C)/C=C/C=C/C=C/1C` [Example 71] was 0.12 nM; that for `CO[C@H]1C[C@@H]2CC[C@@H](C)[C@@](O)(O2)C(=O)C(=O)N2CCCC[C@H]2C(=O)O[C@H]([C@H](C)C[C@@H]2CC[C@H](n3ccccc3=O)[C@H](OC)C2)CC(=O)[C@H](C)/C=C(\C)[C@@H](O)[C@@H](OC)C(=O)[C@H](C)C[C@H](C)/C=C/C=C/C=C/1C` [Example 72] was 0.99 nM.
Still for that read-out and setting: under `CO[C@H]1C[C@@H]2CC[C@@H](C)[C@@](O)(O2)C(=O)C(=O)N2CCCC[C@H]2C(=O)O[C@H]([C@H](C)C[C@@H]2CC[C@H](OC)[C@H](OC)C2)CC(=O)[C@H](C)/C=C(\C)[C@@H](O)[C@@H](OC)C(=O)[C@H](C)C[C@H](C)/C=C/C=C/C=C/1C` [Example 74] stands 1.81 nM.
`C=CC[C@@H]1/C=C(\C)C[C@H](C)C[C@H](OC)[C@H]2O[C@@](O)(C(=O)C(=O)N3CCCC[C@H]3C(=O)O[C@H](/C(C)=C/[C@@H]3CC[C@@H](O)[C@H](OC)C3)[C@H](C)[C@@H](O)CC1=O)[C@H](C)C[C@@H]2OC` [FK-506]: the “binding to FKBP-12” value in the assay with FKBP-12 was “binds to FKBP-12”.
As to `CO[C@H]1C[C@@H]2CC[C@@H](C)[C@@](O)(O2)C(=O)C(=O)N2CCCC[C@H]2C(=O)O[C@H]([C@H](C)C[C@@H]2CC[C@@H](O)[C@H](OC)C2)CC(=O)[C@H](C)/C=C(\C)[C@@H](O)[C@@H](OC)C(=O)[C@H](C)C[C@H](C)/C=C/C=C/C=C/1C` [rapamycin], in [2], the antitumor activity result was “antitumor activity”. Also, the “effectiveness as an immunosuppressant” value (in the assay on adjuvant arthritis; in [3]) was “effective as an immunosuppressant” in each case. Also, in the assay with FKBP-12, the “binding to FKBP-12” value was “binds to FKBP-12”. In the assay on Candida albicans, the antifungal activity entry is given as “antifungal activity”. In addition, the “inhibition of T-cell activation” value in the assay with T-cell activation is “inhibit T-cell activation”. Besides, in assay [4], the “inhibition of formation of IgE-like antibodies” value is “effectively inhibit the formation of IgE-like antibodies”. Besides, in assay [5], the “survival time of organ grafts” value was “prolong survival time of organ grafts”.
